Converted amounts (≈) assume the structure as drawn. Marks after values point to notes of the source that are not given here. Blank lines part the entries; values can stand above or below the molecule they belong to.
Key:
[1] = system: MCF-7 cell; test: Inhibition of MCF-7 cell growth (MTT method); format: cell-based; settings: Homo sapiens, MCF7, MCF-7 cells, 48 hours; for IC50: Calcusyn program
Description: (§1) Cell lines of COC1, SMMC-7721, MCF-7and HT-29 were purchased from Chinese storage center for typical culture. Cells were cultured in RPMI1640 with 10% FCS at 37°C and 5% of CO2. Cells at log phase were harvested for the experiment.
(§2) Cells growth inhibition was measured with MTT method. Cells suspension of 1.0-1.2×10^5/ml were prepare and transferred to 96 well plate, 180µl per well. After further incubation for 2 hours, 20µl of various reagents were added to each well. The cells were back to incubator for 48 hours, and followed with addition of MTT of 20µl (5mg/ml)to each will. Additional incubation 6 hours later, the plate was centrifuged at 1000 rpm for 5 minutes. After aspirating supernatant, 100µl DMSO were added to each well and the optical density were measured at 490nm. The cells inhibition (IR) is calculated as : IR(%)=[1-A(treated)/A(control)]×100% , where is A is optical density. The IR was analyzed using Calcusyn program to determine the IC50 of each drug

[2] = system: HT-29 cell; test: Inhibition of HT-29 cell growth (MTT method); format: cell-based; settings: Homo sapiens, HT-29 cells, 48 hours
Description: as §1, §2

[3] = system: Akt; test: Inhibition of Akt activation (phosphorylation) in breast cancer cells, Western analysis; format: cell-based, human; settings: MDA-MB-435 cells; for inhibition of Akt activation by suppressing its phosphorylation: 12 hours, 0, 0.5 µM, 4 µM, and 8 µM, Fig. 3; for levels of total non-phosphorylated Akt protein: Western analysis; for Akt phosphorylation: dose of 4 µM
Description: Experimental Design: MDA-MB-435 human breast cancer cells were cultured in the DMEM medium with 5% FCS. When cells reached approximately 50-60% confluence, cells were treated with VB-1 and VB-2 for 12 hours at the following doses: 0, 0.5 µM, 4 µM, and 8 µM. Control and treated cells are harvested and total protein was isolated, normalized, and 45 µg of total protein was subjected to Western analysis. The expression of phosphorylated Akt was determined by using a specific anti-phosphorylated Akt antibody and normalized for total Akt protein expression.

[4] = system: SMMC-7721 cell; test: Inhibition of SMMC-7721 cell growth measured by MTT method; format: cell-based; settings: Homo sapiens, SMMC-7721 cells, 48 hours
Description: as §1, §2

[5] = system: MDA-MB-435 human breast cancer cells; test: Growth inhibition of MDA-MB-435 cells measured with MTT method (example titled induction of apoptosis); format: cell-based; settings: for cells growth (percentage of the control group): p value less than 0.005
Description: Experimental design: MDA-MB-435 human breast cancer cells were cultured in the DMEM medium with 5% FCS. Cells were treated with VB-1 at 2 µM, 4 µM and 10 µM for 3 days. Cells were collected from control and treated groups and measured with MTT method.

[6] = system: COC1 cell; test: Inhibition of COC1 cell growth measured by MTT method; format: cell-based; settings: Homo sapiens, COC1 cells, 48 hours; for IC50: Calcusyn program
Description: as §1, §2

[7] = system: human ovarian tumor cells (CoC1); test: In vivo tumor treatment model: nude mice inoculated with CoC1 tumor cells, tumor volume; set-up: species or system Balb/c-nu mice; settings: for Suppression rate of tumor growth (%): vs. control (NS); for Volume (mm^3): x±s, n=4
Description: Experimental Design: Human ovarian tumor cells (CoC1) were purchased from Chinese storage center for typical culture. Cells were cultured in RPMI1640 with 10% FCS. Sub-culture for every 2-3 days. Cells at log phase were harvested for the experiment. Approximately 2x10^6 CoC1 cells were injected subcutaneously into the back of the Balb/c-nu female nude mice at the age of 6-7 weeks. When tumors reached to ≥ 1000 mm^3 (about 30 days), mice bearing similar size tumors were divided into 2 groups: control (NS) and VB-2 treated group. Each group has 4 mice.
VB-2 was dissolved into DMSO and further diluted with normal saline. […] Treatment groups received drugs every other day until the termination of the experiment. All mice were sacrificed at day 20 after the first treatment. Tumor size was determined by three-dimensional measurements (mm) using a caliper. Only measurable tumors were used to calculate the mean tumor volume for each clone at each time point. Each point represents the mean of tumors ± SE. Statistical comparisons for tumor size in treated mice relative to control mice indicate: ** p < 0.01.

- IC50 [1]: 58 µg/mL (≈ 163 µM)
SMILES: COc1cc([C@H]2c3cc(O)c(OC)cc3C=C(C=O)[C@@H]2CO)ccc1O [VB-1, 6-hydroxy-4-(4-hydroxy-3-methoxyphenyl)-3-hydroxymethyl-7-methoxy-3,4-dihydro-(3R, 4S)-2-naphthaldehyde]
- inhibition at 0.1 µg/mL [1]: 6.4%
- inhibition at 0.3 µg/mL [1]: 9.1%
- inhibition at 1 µg/mL [1]: 12.7%
- inhibition at 3 µg/mL [1]: 13.8%
- inhibition at 10 µg/mL [1]: 41.1%
- inhibition at 1 µg/mL ([2]; 1.00 µg/ml): 22.1%
- inhibition at 10 µg/mL ([2]; 10.00 µg/ml): 32.3%
- inhibition of Akt activation by suppressing its phosphorylation [3]: dose-dependent inhibition
- levels of total non-phosphorylated Akt protein ([3]; 12 hours): no effects
- Akt phosphorylation ([3]; 12 hours): significantly block
- Akt activation ([3]; 12 hours, dose of 8 µM): completely blocks
- inhibition at 1 µg/mL ([4]; 1.00 µg/ml): 20.1%
- inhibition at 10 µg/mL ([4]; 10.00 µg/ml): 22.3%
- cell inhibition ([5]; 2 µM, 4 µM and 10 µM for 3 days, Fig 4): dose dependent cell inhibition
- cells growth (percentage of the control group) ([5]; 4 µM, 3 days): significantly less than the control group
- cells growth (percentage of the control group) ([5]; 8 µM, 3 days): significantly less than the control group
- inhibition at 10 µM ([5]; Homo sapiens, 72 h, 10 µM, 3 days): ~50%
- inhibition at 0.4 µg/mL ([6]; 0.4 µg/ml): 27.1%
- inhibition at 0.5 µg/mL [6]: 42.7%
- inhibition at 0.6 µg/mL ([6]; 0.6 µg/ml): 48.1%
- inhibition at 0.8 µg/mL ([6]; 0.8 µg/ml): 65.9%
- inhibition at 1 µg/mL ([6]; 1.0 µg/ml): 66.9%
- IC50 [6]: 0.63 µg/mL (≈ 1.77 µM)

- IC50 [1]: 226 µg/mL (≈ 635 µM)
SMILES: COc1cc([C@H]2c3c(ccc(O)c3OC)C=C(C=O)[C@@H]2CO)ccc1O [VB-2, 6-hydroxy-4-(4-hydroxy-3-methoxyphenyl)-3-hydroxymethyl-5-methoxy-3,4-dlhydro(3R, 4S)-2-naphthaldehyde]
- inhibition at 0.1 µg/mL [1]: 10.6%
- inhibition at 0.3 µg/mL [1]: 15.8%
- inhibition at 1 µg/mL [1]: 17.6%
- inhibition at 3 µg/mL [1]: 26.4%
- inhibition at 10 µg/mL [1]: 28.7%
- inhibition of Akt activation by suppressing its phosphorylation [3]: dose-dependent inhibition
- levels of total non-phosphorylated Akt protein ([3]; 12 hours): no effects
- Akt phosphorylation ([3]; 12 hours): significantly block
- inhibition at 0.5 µg/mL [6]: 39.9%
- inhibition at 5 µg/mL [6]: 34.1%
- inhibition at 50 µg/mL [6]: 39.5%
- Suppression rate of tumor growth (%) ([7]; day 5, dosage 5 mg/kg, i.p. every other day): 7.8%
- Suppression rate of tumor growth (%) ([7]; day 10, dosage 5 mg/kg, i.p. every other day): 66.5%
- Suppression rate of tumor growth (%) ([7]; day 15, dosage 5 mg/kg, i.p. every other day): 64.5%
- Suppression rate of tumor growth (%) ([7]; day 20, dosage 5 mg/kg, i.p. every other day): 55.7%
- Volume (mm^3) ([7]; initial tumor volume before treatment, dosage 5 mg/kg): 1543±1466 mm^3
- Volume (mm^3) ([7]; tumor volume at day 5, dosage 5 mg/kg, i.p. every other day): 2542±1718 mm^3
- Volume (mm^3) ([7]; tumor volume at day 10, dosage 5 mg/kg, i.p. every other day): 2131±1207* mm^3
- Volume (mm^3) ([7]; tumor volume at day 15, dosage 5 mg/kg, i.p. every other day): 3600±1755* mm^3
- Volume (mm^3) ([7]; tumor volume at day 20, dosage 5 mg/kg, i.p. every other day): 4495±2087** mm^3

- IC50 [1]: 9260 µg/mL (≈ 17900 µM)
SMILES: COc1cc([C@H]2c3cc(O)c(OC)cc3C=C(C=O)[C@@H]2CO[C@@H]2O[C@H](CO)[C@@H](O)[C@H](O)[C@H]2O)ccc1O [VB-3, 6-hydroxy-4-(4-hydroxy-3-methoxyphenyl)-3-glucosyloxymethyl-7-methoxy-3,4-dihydro-(3R, 4S)-2-naphthaldehyde]
- inhibition at 0.1 µg/mL [1]: 10.6%
- inhibition at 0.3 µg/mL [1]: 11.3%
- inhibition at 1 µg/mL [1]: 14%
- inhibition at 3 µg/mL [1]: 18.5%
- inhibition at 10 µg/mL [1]: 13.8%

SMILES: COc1cc([C@H]2c3cc(O)c(OC)cc3C=C(CO)[C@@H]2CO)ccc1O [VB-4, 6-hydroxy-7-methoxy-4-(4-hydroxy-3-methoxyphenyl)-2,3-dihydroxymethyl-3,4-dihydro(3R, 4S)-2-hydroynaphthalene]
- inhibition at 0.1 µg/mL [1]: 19.7%
- inhibition at 0.3 µg/mL [1]: 15.6%
- inhibition at 1 µg/mL [1]: 12.3%
- inhibition at 3 µg/mL [1]: 13.2%
- inhibition at 10 µg/mL [1]: 24%
- inhibition at 0.5 µg/mL [6]: 38.8%
- inhibition at 5 µg/mL [6]: 40.2%
- inhibition at 50 µg/mL [6]: 40.6%

- IC50 [1]: 471 µg/mL (≈ 885 µM)
SMILES: COc1cc2c(cc1O)[C@H](c1ccc(O[C@@H]3O[C@H](C(=O)O)[C@@H](O)[C@H](O)[C@H]3O)c(OC)c1)[C@@H](CO)C(C=O)=C2 [VB-5, 6-hydroxy-3-hydroxymethyl-4-(3-methoxyphenyl)-7-methoxy-3,4-dihydro-2-naphthaldehyde-4'-O-β-D-glucopyranosiduronic acid]
- inhibition at 0.1 µg/mL [1]: 13.6%
- inhibition at 0.3 µg/mL [1]: 22%
- inhibition at 1 µg/mL [1]: 23.2%
- inhibition at 3 µg/mL [1]: 13.6%
- inhibition at 10 µg/mL [1]: 30.4%
- inhibition at 0.5 µg/mL [6]: 14.3%
- inhibition at 5 µg/mL [6]: 28.7%
- inhibition at 50 µg/mL [6]: 35.2%
- IC50 [6]: 371 µg/mL (≈ 697 µM)

- IC50 [1]: 11.2 µg/mL (≈ 29 µM)
SMILES: COc1ccc(C2c3cc(OC)c(OC)cc3C=C(C=O)C2CO)cc1OC (centres unmarked) [VB-6, 6-methoxy-4-(4-methoxy-3-methoxyphenyl)-3-hydroxymethyl-7-methoxy-3,4dihydro-2-naphthaldehyde]
- inhibition at 0.1 µg/mL [1]: 10.9%
- inhibition at 0.3 µg/mL [1]: 19.9%
- inhibition at 1 µg/mL [1]: 22.8%
- inhibition at 3 µg/mL [1]: 41.2%
- inhibition at 10 µg/mL [1]: 46.4%
- inhibition at 0.5 µg/mL [6]: 37%
- inhibition at 5 µg/mL [6]: 45.6%
- inhibition at 50 µg/mL [6]: 57.1%
- IC50 [6]: 11.1 µg/mL (≈ 28.8 µM)

SMILES: COc1cc([C@H]2c3cc(OC)c(OC)cc3C=C(C=O)[C@@H]2CO)ccc1O [VB-7, 6,7-dimethoxy-4-(4-hydroxy-3-methoxyphenyl)-3-hydroxymethyl-3,4-dihydro (3R,4S) -2-naphthaldehyde]
- inhibition at 0.5 µg/mL [6]: 14.3%
- inhibition at 5 µg/mL [6]: 27.6%
- inhibition at 50 µg/mL [6]: 50%
- IC50 [6]: 53.2 µg/mL (≈ 144 µM)
